Data as given in patent US9771389B2, “Tylosin derivatives and method for preparation thereof” (BAYER ANIMAL HEALTH GMBH, priority 2013, dated 2017).
Values after ≈ are worked out from the molar mass of the structure shown. Where two headings read alike, the source gives them in different places.

Columns and labels:
[1] = test system: Actinobacillus pleuropneumoniae, 6 isolates; experiment: MIC against Actinobacillus pleuropneumoniae isolates; format: cell-based
Method: (§1) Minimal inhibitory concentrations (MICs) were determined against the most prevalent pathogens in cattle (Mannheimia Haemolytica, 3 isolates) and swine (A. pleuropneumoniae, 6 isolates). In addition the activity of several compounds was tested against two bacterial species, i.e. Mannheimia haemolytica and Actinobacillus pleuropneumoniae, which are considered as the most important bacterial respiratory pathogens in cattle and swine, respectively.

[2] = test system: Mannheimia haemolytica, 3 isolates; experiment: MIC against Mannheimia haemolytica isolates; format: cell-based; conditions: Mannheimia haemolytica
Method: as §1

[3] = test system: M. hemolytica KB345 (Tilmicosin-sensitivity strain); experiment: Paper disc assay, M. hemolytica KB345; format: cell-based, Mannhemia hemolytica; conditions: Table 4
Method: (1) Antibacterial activities against Mannheimia and Pasteurella were determined by the following steps: • 1) M. hemolytica KB345 (Tilmicosin-sensitivity strain) and M. hemolytica KB346 (Tilmicosin-low sensitivity strain) were provided. KB 345 strain stored at −80° C. was seeded to BHIB agar medium (10 mL) by using Microbank beads (Pro-Lab) and platinum nail. After statically incubating the KB 345 strain for 24 hours at 37° C., it was seeded to maintaining slant BHIB agar medium (7 mL) by using platinum loop, further statically incubated for 24 hours at 37° C. to obtain slant. One platinum loop of KB 345 strain stored at the slant was inoculated into a large test tube charged with BHIB liquid medium (10 mL) and then incubated for 24 hours at 37° C. with shaking. • 2) A paper disc (ADVANTEC, Φ:6 mm) was impregnated with a solution of test compound and dried under reduced pressure. • 3) To a melted BHIB agar medium was inoculated 1% of the broth obtained from step 1) above to prepare a test plate. After the medium set, the paper disc prepared in step 2) above was put on the plate and it was incubated at 37° C. • 4) After one day, the inhibition zone diameter and clarity (A to E) were determined. For KB346 strain, the same procedures were repeated.

[4] = test system: Micrococcus luteus ATCC9341; experiment: Paper disc assay, Micrococcus luteus; format: cell-based; conditions: column 1
Method: (§2) (2) Antibacterial activities against other bacteria were determined with Micrococcus luteus ATCC9341 (1), Bacillus subtilis […] (s), Escherichia coli NIHJ (c), Xanthomonas campestris KB88 (X), Mucor racemosus IFO 4581 (Mu) and Candida albicans ATCC 64548 (Ca).
(§3) Bacillus subtilis ATCC6633 was incubated in Davis synthetic medium and then the seed broth was combined with the medium in the ratio of 1:99 to obtain a test plate. Micrococcus luteus ATCC9341, Escherichia coli NIHJ and Xanthomonas campestris KB88 were respectively incubated in Nutrient agar medium and inoculated at 0.2%, 0.5% and 1.0%. Mucor racemosus IFO 4581 and Candida albicans ATCC 64548 were respectively incubated in GY agar medium and then inoculated at 0.3% and 0.2%.
(§4) A paper disc (ADVANTEC, Φ:6 mm) was impregnated with a solution of test compound and dried under reduced pressure. The paper disc was put on the test plate and it was incubated for 24 hours at 37° C. After incubation, the inhibition zone diameter and clarity (A to E) were determined.

[5] = test system: Xanthomonas campestris KB88; experiment: Paper disc assay, Xanthomonas campestris; format: cell-based; conditions: X
Method: as §2, §3, §4

[6] = test system: Bacillus subtilis ATCC6633; experiment: Paper disc assay, Bacillus subtilis; format: cell-based; conditions: S
Method: as §2, §3, §4

[7] = 6ISOLATES, 6 Actinobacillus pleuropneumoniae isolates, broth dilution method, read-out: Range of minimum inhibitory concentrations (MIC)
[8] = 3ISOLATES, 3 Mannheimia haemolytica isolates, broth dilution method, read-out: Range of minimum inhibitory concentrations (MIC)

## CC[C@H]1OC(=O)C[C@@H](O)[C@H](C)[C@@H](O[C@@H]2OC(C)[C@@H](O)C(N(C)C)C2O)[C@@H](CCN(C)Cc2cn(CCNCc3ccccc3)nn2)C[C@@H](C)C(=O)/C=C/C(C)=C/[C@@H]1CO (some centres unmarked) [YT653]
[1]; [7]
  MIC: 4 to 8 µg/mL (≈ 4.84 to 9.67 µM)
[2]; [8]
  MIC: 1 to 8 µg/mL (≈ 1.21 to 9.67 µM)

## CC[C@H]1OC(=O)C[C@@H](O)[C@H](C)[C@@H](O[C@@H]2OC(C)[C@@H](O)C(N(C)C)C2O)[C@@H](CCN(CCn2cc(-c3ccccc3)nn2)Cc2ccc(I)cc2)C[C@@H](C)C(=O)/C=C/C(C)=C/[C@@H]1CO (some centres unmarked) [YT700]
[1]; [7]
  MIC: 8 µg/mL (≈ 8.11 µM)
[2]; [8]
  MIC: 4 to 8 µg/mL (≈ 4.06 to 8.11 µM)

## CC[C@H]1OC(=O)C[C@@H](O)[C@H](C)[C@@H](O[C@@H]2OC(C)[C@@H](O)C(N(C)C)C2O)[C@@H](CC=O)C[C@@H](C)C(=O)/C=C/C(C)=C/[C@@H]1Cn1cc(-c2ccc(-c3ccccc3)cc2)nn1 (some centres unmarked) [YT104, 23-(4-biphenyl-1H-1,2,3-triazol-1-yl)-23-Deoxy-5-O-mycaminosyltylonolide]
[1]; Actinobacillus pleuropneumoniae, pleuropneumoniae isolate 1, read-out: MICs
  MIC: > 16 µg/mL
[1]; pleuropneumoniae isolate 2
  MICs: >16 µg/mL
[1]; pleuropneumoniae isolate 3
  MICs: >16 µg/mL
[1]; pleuropneumoniae isolate 4
  MICs: >16 µg/mL
[1]; pleuropneumoniae isolate 5
  MICs: >16 µg/mL
[1]; pleuropneumoniae isolate 6
  MICs: >16 µg/mL
[2]; M. haemolytica isolate 1, read-out: MICs
  MIC: 8 µg/mL (≈ 9.99 µM)
[2]; M. haemolytica isolate 2, read-out: MICs
  MIC: 4 µg/mL (≈ 4.99 µM)
[2]; M. haemolytica isolate 3, read-out: MICs
  MIC: 8 µg/mL (≈ 9.99 µM)

## CC[C@H]1OC(=O)C[C@@H](O)[C@H](C)[C@@H](O[C@@H]2OC(C)[C@@H](O)C(N(C)C)C2O)[C@@H](CCn2cc(-c3cnc4ccccc4c3)nn2)C[C@@H](C)C(=O)/C=C/C(C)=C/[C@@H]1CO (some centres unmarked) [YT733]
[1]; [7]
  MIC: 4 µg/mL (≈ 5.14 µM)
[2]; [8]
  MIC: 2 to 4 µg/mL (≈ 2.57 to 5.14 µM)

## CC[C@H]1OC(=O)C[C@@H](O)[C@H](C)[C@@H](O[C@@H]2OC(C)[C@@H](O)C(N(C)C)C2O)[C@@H](CCNCCn2cc(-c3cc(C)c(C)cc3C)nn2)C[C@@H](C)C(=O)/C=C/C(C)=C/[C@@H]1CO (some centres unmarked) [YT723]
[1]; [7]
  MIC: 8 µg/mL (≈ 9.85 µM)
[2]; [8]
  MIC: 2 to 8 µg/mL (≈ 2.46 to 9.85 µM)

## CC[C@H]1OC(=O)C[C@@H](O)[C@H](C)[C@@H](O[C@@H]2OC(C)[C@@H](O)C(N(C)C)C2O)[C@@H](CCN(C)Cc2cn(-c3ccc4ncccc4c3)nn2)C[C@@H](C)C(=O)/C=C/C(C)=C/[C@@H]1CO (some centres unmarked) [YT710]
[1]; [7]
  MIC: 4 µg/mL (≈ 4.87 µM)
[2]; [8]
  MIC: 2 to 4 µg/mL (≈ 2.44 to 4.87 µM)

## CC[C@H]1OC(=O)C[C@@H](O)[C@H](C)[C@@H](O[C@@H]2OC(C)[C@@H](O)C(N(C)C)C2O)[C@@H](CCN(CCn2cc(-c3cccc(N)c3)nn2)Cc2ccccc2)C[C@@H](C)C(=O)/C=C/C(C)=C/[C@@H]1CO (some centres unmarked) [YT657]
[1]; [7]
  MIC: 2 µg/mL (≈ 2.29 µM)
[2]; [8]
  MIC: 2 to 4 µg/mL (≈ 2.29 to 4.57 µM)

## CC[C@H]1OC(=O)C[C@@H](O)[C@H](C)[C@@H](O[C@@H]2OC(C)[C@@H](O)C(N(C)C)C2O)[C@@H](CCNCCn2cc(-c3ccsc3)nn2)C[C@@H](C)C(=O)/C=C/C(C)=C/[C@@H]1CO (some centres unmarked) [YT717]
[1]; [7]
  MIC: 4 µg/mL (≈ 5.15 µM)
[2]; [8]
  MIC: 2 to 8 µg/mL (≈ 2.58 to 10.3 µM)

## CC[C@H]1OC(=O)C[C@@H](O)[C@H](C)[C@@H](O[C@@H]2OC(C)[C@@H](O)C(N(C)C)C2O)[C@@H](CCN(CCn2cc(-c3cccnc3)nn2)Cc2ccccc2)C[C@@H](C)C(=O)/C=C/C(C)=C/[C@@H]1CO (some centres unmarked) [YT664]
[1]; [7]
  MIC: 2 to 8 µg/mL (≈ 2.32 to 9.29 µM)
[2]; [8]
  MIC: 4 to 8 µg/mL (≈ 4.65 to 9.29 µM)

## CCC1OC(=O)CC(O)C(C)C(OC2OC(C)C(O)C(N(C)C)C2O)C(CCn2cc(-c3ccccc3)nn2)CC(C)C(=O)C=CC(C)=CC1CI (centres unmarked) [YT113]
[3]; 10 mg/6 mm disk
  Inhibition zone: 11.0 mm
[3]; 30 mg/6 mm disk
  Inhibition zone: 18.0 mm
[3]; 100 mg/6 mm disk
  Inhibition zone: 19.5 mm

## CCC1OC(=O)CC(O)C(C)C(OC2OC(C)C(O)C(N(C)C)C2O)C(CCn2cc(-c3ccccc3)nn2)CC(C)C(=O)C=CC(C)=CC1CN=[N+]=[N-] (centres unmarked) [YT114, 20-(4-phenyl-1H-1,2,3-triazol-1-yl)-20-deoxo-23-azido-23-deoxy-5-O-mycaminosyltylonolide]
[3]; 3 mg/6 mm disk
  Inhibition zone: 11.5 mm
[3]; 10 mg/6 mm disk
  Inhibition zone: 17.5 mm
[3]; 30 mg/6 mm disk
  Inhibition zone: 21.0 mm
[3]; 100 mg/6 mm disk
  Inhibition zone: 21.0 mm

## CC[C@H]1OC(=O)C[C@@H](O)[C@H](C)[C@@H](O[C@@H]2OC(C)[C@@H](O)C(N(C)C)C2O)[C@@H](CCn2cc(-c3ccc4ccccc4n3)nn2)C[C@@H](C)C(=O)/C=C/C(C)=C/[C@@H]1CO (some centres unmarked) [YT734]
[1]; [7]
  MIC: 2 to 4 µg/mL (≈ 2.57 to 5.14 µM)
[2]; [8]
  MIC: 2 to 4 µg/mL (≈ 2.57 to 5.14 µM)

## CC[C@H]1OC(=O)C[C@@H](O)[C@H](C)[C@@H](O[C@@H]2OC(C)[C@@H](O)C(N(C)C)C2O)[C@@H](CCn2cc(CCCCCl)nn2)C[C@@H](C)C(=O)/C=C/C(C)=C/[C@@H]1CO[C@@H]1OC(C)[C@@H](O)C(OC)C1OC (some centres unmarked) [YT19, 20-(4-(4-chlorobutyl)-1H-1,2,3-triazol-1-yl)-20-deoxodesmycosin]
[4]; 0.1 mg/6 mm disc
  Inhibition zone: 13 mm
[4]; 1 mg/6 mm disc
  Inhibition zone: 19 mm
[4]; 10 mg/6 mm disc
  Inhibition zone: 26 mm
[5]; 0.1 mg/6 mm disc
  Inhibition zone: 7 mm
[5]; 1 mg/6 mm disc
  Inhibition zone: 14.5 mm
[5]; 10 mg/6 mm disc
  Inhibition zone: 23 mm
[6]; 0.1 mg/6 mm disc
  Inhibition zone: 7 mm
[6]; 1 mg/6 mm disc
  Inhibition zone: 10.5 mm
[6]; 10 mg/6 mm disc
  Inhibition zone: 15 mm

## CC[C@H]1OC(=O)C[C@@H](O)[C@H](C)[C@@H](O[C@@H]2OC(C)[C@@H](O)C(N(C)C)C2O)[C@@H](CCn2cc(-c3ccsc3)nn2)C[C@@H](C)C(=O)/C=C/C(C)=C/[C@@H]1CO (some centres unmarked) [YT726]
[1]; [7]
  MIC: 8 µg/mL (≈ 10.9 µM)
[2]; [8]
  MIC: 8 µg/mL (≈ 10.9 µM)

## CC[C@H]1OC(=O)C[C@@H](O)[C@H](C)[C@@H](O[C@@H]2OC(C)[C@@H](O)C(N(C)C)C2O)[C@@H](CCN(CCn2cc(-c3ccsc3)nn2)Cc2ccc(I)cc2)C[C@@H](C)C(=O)/C=C/C(C)=C/[C@@H]1CO (some centres unmarked) [YT705]
[1]; [7]
  MIC: 8 µg/mL (≈ 8.06 µM)
[2]; [8]
  MIC: 8 µg/mL (≈ 8.06 µM)

## CC[C@H]1OC(=O)C[C@@H](O)[C@H](C)[C@@H](O[C@@H]2OC(C)[C@@H](O)C(N(C)C)C2O)[C@@H](CCNCCn2cc(-c3ccccc3[N+](=O)[O-])nn2)C[C@@H](C)C(=O)/C=C/C(C)=C/[C@@H]1CO (some centres unmarked) [YT718]
[1]; [7]
  MIC: 8 µg/mL (≈ 9.82 µM)
[2]; [8]
  MIC: 2 to 8 µg/mL (≈ 2.45 to 9.82 µM)

## CC[C@H]1OC(=O)C[C@@H](O)[C@H](C)[C@@H](O[C@@H]2OC(C)[C@@H](O)C(N(C)C)C2O)[C@@H](CCNCCn2cc(-c3ccccc3)nn2)C[C@@H](C)C(=O)/C=C/C(C)=C/[C@@H]1CO (some centres unmarked) [YT617]
[1]; [7]
  MIC: 4 µg/mL (≈ 5.19 µM)
[2]; [8]
  MIC: 2 to 8 µg/mL (≈ 2.6 to 10.4 µM)

## CC[C@H]1OC(=O)C[C@@H](O)[C@H](C)[C@@H](O[C@@H]2OC(C)[C@@H](O)C(N(C)C)C2O)[C@@H](CCn2cc(-c3ccccc3)nn2)C[C@@H](C)C(=O)/C=C/C(C)=C/[C@@H]1CO[C@@H]1OC(C)[C@@H](O)C(OC)C1OC (some centres unmarked) [YT13, 20-(4-phenyl-1H-1,2,3-triazol-1-yl)-20-deoxodesmycosin]
[4]; 0.1 mg/6 mm disc
  Inhibition zone: 15 mm
[4]; 1 mg/6 mm disc
  Inhibition zone: 21.5 mm
[4]; 10 mg/6 mm disc
  Inhibition zone: 27.5 mm
[5]; 0.1 mg/6 mm disc
  Inhibition zone: 8 mm
[5]; 1 mg/6 mm disc
  Inhibition zone: 17 mm
[5]; 10 mg/6 mm disc
  Inhibition zone: 23.5 mm
[6]; 0.1 mg/6 mm disc
  Inhibition zone: 9.5 mm
[6]; 1 mg/6 mm disc
  Inhibition zone: 12 mm
[6]; 10 mg/6 mm disc
  Inhibition zone: 15.5 mm

## CC[C@H]1OC(=O)C[C@@H](O)[C@H](C)[C@@H](O[C@@H]2OC(C)[C@@H](O)C(N(C)C)C2O)[C@@H](CCN(CCn2cc(-c3ccsc3)nn2)Cc2ccccc2)C[C@@H](C)C(=O)/C=C/C(C)=C/[C@@H]1CO (some centres unmarked) [YT674]
[1]; [7]
  MIC: 2 µg/mL (≈ 2.31 µM)
[2]; [8]
  MIC: 2 to 4 µg/mL (≈ 2.31 to 4.62 µM)
